Laboratory results: patent publication US8192962B2, “Processes for detecting toxic substances” (Daikin Industries, Ltd., priority 2001, dated 2012)

Test system: Metabolism protein genes
Assay: DNA chip mRNA expression in yeast, metabolism protein genes (Table 7)
Format: cell-based, Saccharomyces cerevisiae S288C
Experimental: Yeast (Saccharomyces cerevisiae S288C (α SUC2mal mel gap2 CUP1)) were incubated at 25° C. on YPD medium (yeast extract 1%, polypepton 2%, glucose 2%). One of toxic chemical substances was added to the cells at logarithmic growth phase, and the cells were further incubated for two hours. Cells were cultured without any chemical substance in the same condition, and were used as control. Concentrations of the chemical substances were defined to inhibit the growth of the yeast but not lead to death.
After completion of the incubation, the culture was centrifuged to collect the cells. To the cells, sodium acetate buffer (50 mM sodium acetate, 10 mM EDTA, 1% SDS) was added, and the mixture was shaken at 65° C. for five minutes, followed by returning to room temperature, and obtaining the supernatant, of which the procedures were repeated two times. To the supernatant, ½ amount of a solution of phenol/chloroform was added, and the mixture was centrifuged to give a supernatant, which was added with an equal amount of chloroform, and the mixture was centrifuged to give a supernatant. To the supernatant, an equal amount of isopropanol containing 0.3 M sodium acetate was added, and the mixture was allowed to stand at room temperature for 30 minutes, after which the mixture was centrifuged to give a sediment of the whole RNAs. Seventy % ethanol was added to the sediment, and the mixture was again centrifuged to give a sediment, which was then dried and dissolved in water. mRNA was isolated from the whole RNAs as followings. In view of the fact that a poly A chain is attached to the 3′ terminus of mRNA, a polynucleotide having a poly T structure which was immobilized on the surface of latex beads was used to trap the mRNA, and then the mRNA was washed and eluted with spine column (Oligotex-dT30<Super>mRNA Purification Kit, Takara). Reverse transcription of the mRNA was conducted with a reverse transcriptase (Super Script II Reverse Transcriptase; catalogue No. 18064-014, GibcoBRL) using fluorescence-labeled nucleotides to give cDNAs that were introduced with Cy3-dUTP or Cy5-dUTP during the reverse transcription.
The labeled cDNAs were dissolved in TE buffer (10mM Tris-HCl/1 mM EDTA, pH8.0), and the solution was dropped on the DNA chip containing the whole genes of yeast (DNA Chip Research Inc. Japan) so that the cDNAs were hybridized on the DNA chip at 65° C. for over 12 hours. The fluoresces intensity of the DNA chip was read with a scanner, and the ratio relative to the fluorescence intensity resulting from the absence of chemical substance was estimated as the following, which is shown in Tables 1 to 9: […]

SMILES: CCCCCCCCCCCCc1ccc(S(=O)(=O)[O-])cc1.[Na+] [(17), sodium dodecylbenzosulfonate]
- The level of expressed mRNA in the presence of chemical substance/The level of expressed mRNA in the absence of chemical substance (yeast gene YAL012W): 0.9
- The level of expressed mRNA in the presence of chemical substance/The level of expressed mRNA in the absence of chemical substance (yeast gene YAL038W): 1.0
- level of expressed mRNA in the presence/in the absence of chemical substance (yeast gene YBR003W): 1.1
- level of expressed mRNA in the presence/in the absence of chemical substance (yeast gene YBR011C): 0.8
- level of expressed mRNA in the presence/in the absence of chemical substance (yeast gene YBR020W): 0.8
- The level of expressed mRNA in the presence of chemical substance/The level of expressed mRNA in the absence of chemical substance (yeast gene YBR023C): 0.7
- The level of expressed mRNA in the presence of chemical substance/The level of expressed mRNA in the absence of chemical substance (yeast gene YBR029C): 0.6
- The level of expressed mRNA in the presence of chemical substance/The level of expressed mRNA in the absence of chemical substance (yeast gene YBR183W): 1.4
- The level of expressed mRNA in the presence of chemical substance/The level of expressed mRNA in the absence of chemical substance (yeast gene YBR222C): 0.8
- The level of expressed mRNA in the presence of chemical substance/The level of expressed mRNA in the absence of chemical substance (yeast gene YBR256C): 2.6
- The level of expressed mRNA in the presence of chemical substance/The level of expressed mRNA in the absence of chemical substance (yeast gene YCL009C): 1.1
- The level of expressed mRNA in the presence of chemical substance/The level of expressed mRNA in the absence of chemical substance (yeast gene YCL064C): 0.3
- level of expressed mRNA in the presence/in the absence of chemical substance (yeast gene YCR010C): 1.9
- level of expressed mRNA in the presence/in the absence of chemical substance (yeast gene YCR034W): 0.9
- The level of expressed mRNA in the presence of chemical substance/The level of expressed mRNA in the absence of chemical substance (yeast gene YCR048W): 1.2
- The level of expressed mRNA in the presence of chemical substance/The level of expressed mRNA in the absence of chemical substance (yeast gene YCR098C): 1.7
- The level of expressed mRNA in the presence of chemical substance/The level of expressed mRNA in the absence of chemical substance (yeast gene YDR019C): 1.2
- level of expressed mRNA in the presence/in the absence of chemical substance (yeast gene YDR050C): 1.1
- level of expressed mRNA in the presence/in the absence of chemical substance (yeast gene YDR073W): 1.8
- level of expressed mRNA in the presence/in the absence of chemical substance (yeast gene YDR123C): 1.3
- level of expressed mRNA in the presence/in the absence of chemical substance (yeast gene YDR178W): 1.2
- level of expressed mRNA in the presence/in the absence of chemical substance (yeast gene YDR277C): 1.2
- level of expressed mRNA in the presence/in the absence of chemical substance (yeast gene YDR284C): 1.5
- level of expressed mRNA in the presence/in the absence of chemical substance (yeast gene YDR345C): 1.3
- The level of expressed mRNA in the presence of chemical substance/The level of expressed mRNA in the absence of chemical substance (yeast gene YDR380W): 0.8
- level of expressed mRNA in the presence/in the absence of chemical substance (yeast gene YDR400W): 1.1
- level of expressed mRNA in the presence/in the absence of chemical substance (yeast gene YDR408C): 1.1
- level of expressed mRNA in the presence/in the absence of chemical substance (yeast gene YDR483W): 1.2
- The level of expressed mRNA in the presence of chemical substance/The level of expressed mRNA in the absence of chemical substance (yeast gene YDR497C): 1.6
- The level of expressed mRNA in the presence of chemical substance/The level of expressed mRNA in the absence of chemical substance (yeast gene YDR502C): 0.9
- The level of expressed mRNA in the presence of chemical substance/The level of expressed mRNA in the absence of chemical substance (yeast gene YDR516C): 1.1
- level of expressed mRNA in the presence/in the absence of chemical substance (yeast gene YEL063C): 0.7
- level of expressed mRNA in the presence/in the absence of chemical substance (yeast gene YER015W): 1.6
- The level of expressed mRNA in the presence of chemical substance/The level of expressed mRNA in the absence of chemical substance (yeast gene YER026C): 1.7
- The level of expressed mRNA in the presence of chemical substance/The level of expressed mRNA in the absence of chemical substance (yeast gene YER053C): 1.2
- The level of expressed mRNA in the presence of chemical substance/The level of expressed mRNA in the absence of chemical substance (yeast gene YER069W): 1.1
- level of expressed mRNA in the presence/in the absence of chemical substance (yeast gene YER081W): 1.1
- The level of expressed mRNA in the presence of chemical substance/The level of expressed mRNA in the absence of chemical substance (yeast gene YER096W): 1.0
- level of expressed mRNA in the presence/in the absence of chemical substance (yeast gene YER120W): 1.2
- The level of expressed mRNA in the presence of chemical substance/The level of expressed mRNA in the absence of chemical substance (yeast gene YER178W): 1.1
- level of expressed mRNA in the presence/in the absence of chemical substance (yeast gene YFL011W): 0.8
- The level of expressed mRNA in the presence of chemical substance/The level of expressed mRNA in the absence of chemical substance (yeast gene YFL014W): 1.5
- The level of expressed mRNA in the presence of chemical substance/The level of expressed mRNA in the absence of chemical substance (yeast gene YFL030W): 1.0
- The level of expressed mRNA in the presence of chemical substance/The level of expressed mRNA in the absence of chemical substance (yeast gene YFL031W): 1.2
- The level of expressed mRNA in the presence of chemical substance/The level of expressed mRNA in the absence of chemical substance (yeast gene YFL056C): 1.0
- The level of expressed mRNA in the presence of chemical substance/The level of expressed mRNA in the absence of chemical substance (yeast gene YFL057C): 1.6
- The level of expressed mRNA in the presence of chemical substance/The level of expressed mRNA in the absence of chemical substance (yeast gene YFR047C): 1.5
- level of expressed mRNA in the presence/in the absence of chemical substance (yeast gene YGL012W): 0.9
- The level of expressed mRNA in the presence of chemical substance/The level of expressed mRNA in the absence of chemical substance (yeast gene YGL022W): 0.9
- level of expressed mRNA in the presence/in the absence of chemical substance (yeast gene YGL115W): 0.8
- The level of expressed mRNA in the presence of chemical substance/The level of expressed mRNA in the absence of chemical substance (yeast gene YGL126W): 0.9
- level of expressed mRNA in the presence/in the absence of chemical substance (yeast gene YGL205W): 3.9
- The level of expressed mRNA in the presence of chemical substance/The level of expressed mRNA in the absence of chemical substance (yeast gene YGL209W): 1.1
- The level of expressed mRNA in the presence of chemical substance/The level of expressed mRNA in the absence of chemical substance (yeast gene YGL248W): 1.1
- The level of expressed mRNA in the presence of chemical substance/The level of expressed mRNA in the absence of chemical substance (yeast gene YGR037C): 1.4
- The level of expressed mRNA in the presence of chemical substance/The level of expressed mRNA in the absence of chemical substance (yeast gene YGR055W): 0.7
- level of expressed mRNA in the presence/in the absence of chemical substance (yeast gene YGR096W): 0.8
- level of expressed mRNA in the presence/in the absence of chemical substance (yeast gene YGR191W): 0.8
- The level of expressed mRNA in the presence of chemical substance/The level of expressed mRNA in the absence of chemical substance (yeast gene YGR194C): 1.1
- level of expressed mRNA in the presence/in the absence of chemical substance (yeast gene YGR204W): 1.0
- The level of expressed mRNA in the presence of chemical substance/The level of expressed mRNA in the absence of chemical substance (yeast gene YGR256W): 1.1
- The level of expressed mRNA in the presence of chemical substance/The level of expressed mRNA in the absence of chemical substance (yeast gene YGR282C): 1.1
- level of expressed mRNA in the presence/in the absence of chemical substance (yeast gene YGR288W): 1.2
- level of expressed mRNA in the presence/in the absence of chemical substance (yeast gene YHR025W): 1.0
- The level of expressed mRNA in the presence of chemical substance/The level of expressed mRNA in the absence of chemical substance (yeast gene YHR111W): 1.1
- level of expressed mRNA in the presence/in the absence of chemical substance (yeast gene YHR123W): 1.1
- The level of expressed mRNA in the presence of chemical substance/The level of expressed mRNA in the absence of chemical substance (yeast gene YHR137W): 0.8
- The level of expressed mRNA in the presence of chemical substance/The level of expressed mRNA in the absence of chemical substance (yeast gene YHR174W): 1.0
- The level of expressed mRNA in the presence of chemical substance/The level of expressed mRNA in the absence of chemical substance (yeast gene YHR176W): 1.4
- level of expressed mRNA in the presence/in the absence of chemical substance (yeast gene YHR210C): 1.4
- level of expressed mRNA in the presence/in the absence of chemical substance (yeast gene YIL006W): 0.8
- The level of expressed mRNA in the presence of chemical substance/The level of expressed mRNA in the absence of chemical substance (yeast gene YIL045W): 1.1
- The level of expressed mRNA in the presence of chemical substance/The level of expressed mRNA in the absence of chemical substance (yeast gene YIL107C): 1.2
- The level of expressed mRNA in the presence of chemical substance/The level of expressed mRNA in the absence of chemical substance (yeast gene YIL154C): 1.2
- The level of expressed mRNA in the presence of chemical substance/The level of expressed mRNA in the absence of chemical substance (yeast gene YIL155C): 1.1
- The level of expressed mRNA in the presence of chemical substance/The level of expressed mRNA in the absence of chemical substance (yeast gene YIR034C): 1.0
- The level of expressed mRNA in the presence of chemical substance/The level of expressed mRNA in the absence of chemical substance (yeast gene YIR036C): 1.5
- The level of expressed mRNA in the presence of chemical substance/The level of expressed mRNA in the absence of chemical substance (yeast gene YJL031C): 1.2
- The level of expressed mRNA in the presence of chemical substance/The level of expressed mRNA in the absence of chemical substance (yeast gene YJL068C): 1.4
- The level of expressed mRNA in the presence of chemical substance/The level of expressed mRNA in the absence of chemical substance (yeast gene YJL088W): 1.4
- The level of expressed mRNA in the presence of chemical substance/The level of expressed mRNA in the absence of chemical substance (yeast gene YJL099W): 1.2
- level of expressed mRNA in the presence/in the absence of chemical substance (yeast gene YJL121C): 1.1
- level of expressed mRNA in the presence/in the absence of chemical substance (yeast gene YJL167W): 1.4
- The level of expressed mRNA in the presence of chemical substance/The level of expressed mRNA in the absence of chemical substance (yeast gene YJL172W): 1.8
- level of expressed mRNA in the presence/in the absence of chemical substance (yeast gene YJL216C): 1.2
- The level of expressed mRNA in the presence of chemical substance/The level of expressed mRNA in the absence of chemical substance (yeast gene YJL219W): 1.6
- level of expressed mRNA in the presence/in the absence of chemical substance (yeast gene YJR077C): 1.0
- The level of expressed mRNA in the presence of chemical substance/The level of expressed mRNA in the absence of chemical substance (yeast gene YJR137C): 0.9
- level of expressed mRNA in the presence/in the absence of chemical substance (yeast gene YJR143C): 0.7
- The level of expressed mRNA in the presence of chemical substance/The level of expressed mRNA in the absence of chemical substance (yeast gene YJR148W): 1.3
